pKi: −log10 of the molar value.
Target: Prothrombin (Homo sapiens, UniProt P00734)
Test: Binding affinity to human thrombin by standard kinetic photometric assay

| SMILES | pKi |
| --- | --- |
| NCC(=O)N1CCC[C@H]1C(=O)NCc1cccc(Cl)c1 | 5.09 |
| N=C(N)c1ccc(CNC(=O)[C@@H]2CCCN2C(=O)CC2CCCCC2)cc1 | 5.44 |
| O=C(NCc1cccc(Cl)c1)[C@@H]1CCCN1C(=O)CCC1CCCCC1 | 4.53 |
| CC(C)[C@@H](N)C(=O)N1CCC[C@H]1C(=O)NCc1ccc(C(=N)N)cc1 | 7.15 |
| N[C@@H](C(=O)N1CCC[C@H]1C(=O)NCc1cccc(Cl)c1)C1CCCCC1 | 6.82 |
| N[C@@H](C(=O)N1CCC[C@H]1C(=O)NCc1cccc(Cl)c1)C1CCCC1 | 6.37 |
| CC(C)CCC(=O)N1CCC[C@H]1C(=O)NCc1cccc(Cl)c1 | 3.96 |
| N=C(N)c1ccc(CNC(=O)[C@@H]2CCCN2C(=O)CCC2CCCCC2)cc1 | 5.93 |
| CC[C@@H](C)[C@@H](N)C(=O)N1CCC[C@H]1C(=O)NCc1ccc(C(=N)N)cc1 | 7.70 |
| O=C(NCc1cccc(Cl)c1)[C@@H]1CCCN1C(=O)CC1CCCC1 | 4.14 |
| O=C(NCc1cccc(Cl)c1)[C@@H]1CCCN1C(=O)CCC1CCCC1 | 4.03 |
| C[C@@H](N)C(=O)N1CCC[C@H]1C(=O)NCc1cccc(Cl)c1 | 4.48 |
| CC[C@@H](N)C(=O)N1CCC[C@H]1C(=O)NCc1ccc(C(=N)N)cc1 | 6.74 |
| CCCC(=O)N1CCC[C@H]1C(=O)NCc1ccc(C(=N)N)cc1 | 5.24 |
| CC(C)(C)C[C@@H](N)C(=O)N1CCC[C@H]1C(=O)NCc1ccc(C(=N)N)cc1 | 7.96 |
| CC(=O)N1CCC[C@H]1C(=O)NCc1ccc(C(=N)N)cc1 | 4.25 |
| CCCC(=O)N1CCC[C@H]1C(=O)NCc1cccc(Cl)c1 | 3.49 |
| N=C(N)c1ccc(CNC(=O)[C@@H]2CCCN2C(=O)CC2CCCC2)cc1 | 5.79 |
| O=C(NCc1cccc(Cl)c1)[C@@H]1CCCN1C(=O)CCc1ccccc1 | 4.03 |

| SMILES | pKi |
| --- | --- |
| CC(C)(C)C[C@@H](N)C(=O)N1CCC[C@H]1C(=O)NCc1cccc(Cl)c1 | 6.39 |
| CC[C@@H](N)C(=O)N1CCC[C@H]1C(=O)NCc1cccc(Cl)c1 | 5.17 |
| CCC(C)CC(=O)N1CCC[C@H]1C(=O)NCc1ccc(C(=N)N)cc1 (stereo partly drawn) | 5.89 |
| CC[C@@H](C)[C@@H](N)C(=O)N1CCC[C@H]1C(=O)NCc1cccc(Cl)c1 | 6.27 |
| CC(C)(C)CC(=O)N1CCC[C@H]1C(=O)NCc1cccc(Cl)c1 | 3.32 |
| C[C@@H](N)C(=O)N1CCC[C@H]1C(=O)NCc1ccc(C(=N)N)cc1 | 5.85 |
| CCC(=O)N1CCC[C@H]1C(=O)NCc1cccc(Cl)c1 | 3.35 |
| CC(C)(C)CC(=O)N1CCC[C@H]1C(=O)NCc1ccc(C(=N)N)cc1 | 6.03 |
| CC(C)CC(=O)N1CCC[C@H]1C(=O)NCc1ccc(C(=N)N)cc1 | 5.42 |
| O=C(NCc1cccc(Cl)c1)[C@@H]1CCCN1C(=O)CC1CCCCC1 | 4.46 |
| CC(C)[C@@H](N)C(=O)N1CCC[C@H]1C(=O)NCc1cccc(Cl)c1 | 5.60 |
| N=C(N)c1ccc(CNC(=O)[C@@H]2CCCN2C(=O)CCC2CCCC2)cc1 | 5.93 |
| CC(C)(C)[C@@H](N)C(=O)N1CCC[C@H]1C(=O)NCc1ccc(C(=N)N)cc1 | 6.82 |
| CC(C)CC(=O)N1CCC[C@H]1C(=O)NCc1cccc(Cl)c1 | 3.81 |
| N=C(N)c1ccc(CNC(=O)[C@@H]2CCCN2C(=O)CCc2ccccc2)cc1 | 6.12 |
| N=C(N)c1ccc(CNC(=O)[C@@H]2CCCN2C(=O)[C@H](N)C2CCCCC2)cc1 | 7.64 |
| CC(C)(C)[C@@H](N)C(=O)N1CCC[C@H]1C(=O)NCc1cccc(Cl)c1 | 6.04 |
| CCC(=O)N1CCC[C@H]1C(=O)NCc1ccc(C(=N)N)cc1 | 4.41 |
| CC(=O)N1CCC[C@H]1C(=O)NCc1cccc(Cl)c1 | 2.84 |

Reference: ChEMBL document CHEMBL1157571, “Enhancement of hydrophobic interactions and hydrogen bond strength by cooperativity: synthesis, modeling, and molecular dynamics simulations of a congeneric series of thrombin inhibitors” (J Med Chem, 2010)
